Each structure is given as a SMILES string. Bounds are passed on as bounds.

The source of these data is ChEMBL document CHEMBL3585266, “New matrix metalloproteinase inhibitors based on γ-fluorinated α-aminocarboxylic and α-aminohydroxamic acids” (Bioorg Med Chem, 2015).

Test [1] has as its target Matrix metalloproteinase-9 (Homo sapiens, UniProt P14780). As to the kind of experiment: Inhibition of human active MMP9 using (7-methoxycoumarin-4-yl) acetyl pro-Leu-Gly-Leu-[3-(2,4-dinitrophenyl)-L-2,3-diamino-propionyl]-Ala-Arg-NH2 fluorogenic substrate assessed as fluorescent product release.
Test [2] deals with 72 kDa type IV collagenase (Homo sapiens, UniProt P08253).
Chain of 72 kDa type IV collagenase (P08253 whole entry): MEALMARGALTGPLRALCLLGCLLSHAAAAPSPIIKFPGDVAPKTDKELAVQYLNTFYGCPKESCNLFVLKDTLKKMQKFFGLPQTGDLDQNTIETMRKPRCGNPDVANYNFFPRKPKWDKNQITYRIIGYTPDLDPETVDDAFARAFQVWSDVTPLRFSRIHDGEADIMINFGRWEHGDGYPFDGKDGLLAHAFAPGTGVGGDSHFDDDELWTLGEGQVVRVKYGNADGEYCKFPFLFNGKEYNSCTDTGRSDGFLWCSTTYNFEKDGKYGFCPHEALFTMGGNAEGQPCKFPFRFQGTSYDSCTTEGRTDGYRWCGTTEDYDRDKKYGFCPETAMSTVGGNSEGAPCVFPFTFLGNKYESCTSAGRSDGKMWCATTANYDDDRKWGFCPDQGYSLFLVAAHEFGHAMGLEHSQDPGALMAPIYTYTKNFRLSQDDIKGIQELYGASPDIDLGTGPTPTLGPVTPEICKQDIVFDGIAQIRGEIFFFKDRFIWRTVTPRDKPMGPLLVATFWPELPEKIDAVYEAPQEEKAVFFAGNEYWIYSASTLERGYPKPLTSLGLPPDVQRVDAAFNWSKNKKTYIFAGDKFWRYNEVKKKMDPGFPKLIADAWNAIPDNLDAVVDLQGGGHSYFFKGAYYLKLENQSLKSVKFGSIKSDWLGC
Description: Inhibition of human active MMP2 using (7-methoxycoumarin-4-yl) acetyl pro-Leu-Gly-Leu-[3-(2,4-dinitrophenyl)-L-2,3-diamino-propionyl]-Ala-Arg-NH2 fluorogenic substrate assessed as fluorescent product release

Chain of Matrix metalloproteinase-9 (P14780 whole entry): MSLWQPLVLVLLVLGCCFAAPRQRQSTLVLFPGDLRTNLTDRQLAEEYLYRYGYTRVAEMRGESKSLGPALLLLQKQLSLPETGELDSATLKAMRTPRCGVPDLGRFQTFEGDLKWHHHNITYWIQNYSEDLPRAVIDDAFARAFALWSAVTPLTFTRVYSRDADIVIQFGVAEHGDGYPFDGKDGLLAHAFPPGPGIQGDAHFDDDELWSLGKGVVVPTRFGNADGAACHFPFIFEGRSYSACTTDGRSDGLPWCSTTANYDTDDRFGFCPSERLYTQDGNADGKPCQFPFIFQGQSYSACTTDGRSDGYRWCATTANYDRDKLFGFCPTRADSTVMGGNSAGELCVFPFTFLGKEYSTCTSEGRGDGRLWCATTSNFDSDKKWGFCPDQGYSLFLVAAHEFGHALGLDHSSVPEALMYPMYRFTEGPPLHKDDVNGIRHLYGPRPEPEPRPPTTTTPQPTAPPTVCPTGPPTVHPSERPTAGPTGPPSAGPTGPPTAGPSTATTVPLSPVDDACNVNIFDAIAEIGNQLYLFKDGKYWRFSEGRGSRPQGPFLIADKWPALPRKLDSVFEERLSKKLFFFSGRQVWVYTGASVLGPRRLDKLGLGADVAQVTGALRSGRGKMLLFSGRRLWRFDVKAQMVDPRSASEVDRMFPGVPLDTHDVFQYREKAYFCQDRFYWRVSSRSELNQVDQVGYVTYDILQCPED

As to `C=CC[C@H](C(=O)O)N(Cc1cccnc1)S(=O)(=O)c1ccc(OC)cc1`, the IC50 worked out at 1.7 µM in test [1] and 2.1 µM in test [2].

`C=C(F)C[C@@H](C(=O)O)N(Cc1cccnc1)S(=O)(=O)c1ccc(OC)cc1`: the 50% inhibitory concentration (IC50) in test [1] and in test [2] was > 100 µM each time.

On to `C=CC[C@@H](C(=O)NO)N(Cc1cccnc1)S(=O)(=O)c1ccc(OC)cc1`, for which the IC50 in test [1] is 0.0064 µM; in test [2], 0.0063 µM.

On to `CC[C@H](C(=O)NO)N(Cc1cccnc1)S(=O)(=O)c1ccc(OC)cc1`, for which the IC50 came out at 0.0046 µM in test [1] and 0.002 µM in test [2].

On to `C=CC[C@H](C(=O)NO)N(Cc1cccnc1)S(=O)(=O)c1ccc(OC)cc1`, for which the half-maximal inhibitory concentration (IC50) in test [1] amounted to 0.00054 µM; in test [2], 0.0039 µM.

As to `CC[C@H](C(=O)O)N(Cc1cccnc1)S(=O)(=O)c1ccc(OC)cc1`, the half-maximal inhibitory concentration (IC50) was found to be 8.8 µM in test [1] and 10.3 µM in test [2].

Take `C=C(F)C[C@H](C(=O)NO)N(Cc1cccnc1)S(=O)(=O)c1ccc(OC)cc1`: the concentration for half-maximal inhibition (IC50) in test [1] was determined as 0.0083 µM; in test [2], 0.0093 µM.

Consider `COc1ccc(S(=O)(=O)N(Cc2cccnc2)[C@H](CCF)C(=O)NO)cc1`, for which the IC50 in test [1] was 0.0123 µM; in test [2], 0.0064 µM.

`C=C(F)C[C@H](C(=O)O)N(Cc1cccnc1)S(=O)(=O)c1ccc(OC)cc1`: the IC50 in test [1] was > 100 µM; in test [2] it was 35.7 µM.

For the compound `COc1ccc(S(=O)(=O)N(Cc2cccnc2)[C@H](CCF)C(=O)O)cc1`, the 50% inhibitory concentration (IC50) in test [1] and in test [2] was > 100 µM throughout.

Regarding `CC[C@@H](C(=O)NO)N(Cc1cccnc1)S(=O)(=O)c1ccc(OC)cc1`, the half-inhibitory concentration (IC50) was found to be 0.7 µM in test [1] and 1.4 µM in test [2].

Take `C=CC[C@@H](C(=O)O)N(Cc1cccnc1)S(=O)(=O)c1ccc(OC)cc1`: the IC50 in test [1] and in test [2] was > 100 µM throughout.

Turning to `CC[C@@H](C(=O)O)N(Cc1cccnc1)S(=O)(=O)c1ccc(OC)cc1`, the IC50 in test [1] and in test [2] was > 100 µM each time.

As for `COc1ccc(S(=O)(=O)N(Cc2cccnc2)[C@@H](CCF)C(=O)O)cc1`, the IC50 is > 100 µM in test [1] and 34.7 µM in test [2].

For the compound `C=C(F)C[C@@H](C(=O)NO)N(Cc1cccnc1)S(=O)(=O)c1ccc(OC)cc1`, the IC50 was determined as 0.0049 µM in test [1] and 0.0072 µM in test [2].
